Experimental data reported in ChEMBL document CHEMBL2331387, “Chemical probes of a trisubstituted pyrrole to identify its protein target(s) in Plasmodium sporozoites” (2013).
Calls of active or inactive are those of the source. The calls are words filed in the database; no cut-off is given here.

Legend:
Plasmodium berghei [1] = assay: Antimalarial activity against sporozoite stage of Plasmodium berghei infected in human HepG2 cells assessed as inhibition of sporozoite infectivity at 10 uM after 40 hrs; assay type: functional, organism-based
Plasmodium berghei [2] = assay: Antimalarial activity against sporozoite stage of Plasmodium berghei infected in human HepG2 cells assessed as inhibition of sporozoite infectivity at 2 uM after 40 hrs; assay type: functional

Row | SMILES | inhibition (Plasmodium berghei [1]) | inhibition at 2 µM (Plasmodium berghei [2]; HepG2, 40 h) | inhibition (Plasmodium berghei [2])
1 | NCCN1CCC(c2cc(-c3ccncc3)c(-c3ccc(F)cc3)[nH]2)CC1 | Active |  | 
2 | CN1CCC(c2cc(-c3ccncc3)c(-c3ccc(F)cc3)[nH]2)CC1 |  | > 90% | 
3 | O=C(CCCCCNC(=O)CCCC[C@@H]1SC[C@@H]2NC(=O)N[C@@H]21)NCCCCCC(=O)NCCN1CCC(c2cc(-c3ccncc3)c(-c3ccc(F)cc3)[nH]2)CC1 | inactive |  | inactive
4 | O=C(CCCC[C@@H]1SC[C@@H]2NC(=O)N[C@@H]21)NCCOCCOCCOCCOCCC(=O)NCCN1CCC(c2cc(-c3ccncc3)c(-c3ccc(F)cc3)[nH]2)CC1 | inactive |  | inactive
5 | Fc1ccc(-c2[nH]c(C3CCNCC3)cc2-c2ccncc2)cc1 | Active |  | 
